Measured values reported in PMC8400968, “Design, Synthesis, Biological Evaluation, and Computational Studies of Novel Tri-Aryl Imidazole-Benzene Sulfonamide Hybrids as Promising Selective Carbonic Anhydrase IX and XII Inhibitors” (Molecules, 2021).
pIC50, pKi: −log10 of the molar value. Where two headings read alike, the source gives them in different places.

How the values were obtained:
hCA I = target: T1, hCA I (Homo sapiens, UniProt P00915); assay: stopped-flow CO2 hydrase assay, hCA I; assay type: biochemical
T1 construct: made in house
T1 sequence (P00915 whole entry): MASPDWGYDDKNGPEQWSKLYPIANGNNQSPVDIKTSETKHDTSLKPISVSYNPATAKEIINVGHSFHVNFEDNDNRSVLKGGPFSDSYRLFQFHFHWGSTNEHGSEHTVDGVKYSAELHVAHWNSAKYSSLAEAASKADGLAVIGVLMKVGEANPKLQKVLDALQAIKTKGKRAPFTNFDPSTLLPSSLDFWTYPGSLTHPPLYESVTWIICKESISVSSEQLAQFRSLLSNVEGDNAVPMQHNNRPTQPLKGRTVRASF
Method: (§1) Newly synthesized hybrids 5a–n were tested for their inhibitory activity against four physiologically and pharmacologically CA isoforms, namely cytosolic hCA I and II, and tumor-associated isoforms hCA IX and XII, using a CO2 hydrase stop-flow assay. Acetazolamide (AAZ), clinically used sulphonamide, was used as the standard drug. […] The ability of imidazoles 5a–n toward inhibition of hCA I, II (cytosolic) as well as hCA IX and XII (transmembrane, tumor-associated isoforms) using stopped-flow CO2 hydrase assay was evaluated. See Appendix A.
(§2) The enzymes are recombinant proteins prepared in our lab. […] The uncatalyzed rates were determined in the same manner and subtracted from the total observed rates. Stock solutions of inhibitor (0.1 mM) were prepared in distilled-deionized water and dilutions up to 0.01 nM were done thereafter with the assay buffer. Inhibitor and enzyme solutions were preincubated together for 15 min at room temperature prior to assay, in order to allow for the formation of the E-I complex. The inhibition constants were obtained by non-linear least-squares methods using PRISM 3 and the Cheng-Prusoff equation, and represent the mean from at least three different determinations.

hCA II = target: T2, hCA II (Homo sapiens, UniProt P00918); assay: stopped-flow CO2 hydrase assay, hCA II; assay type: biochemical
T2 construct: made in house
Method: as §1, §2

hCA IX = target: T3, hCA IX (Homo sapiens, UniProt Q16790); assay: stopped-flow CO2 hydrase assay, hCA IX; assay type: biochemical; conditions: for Selectivity Ratio hCA XII/ hCA IX: selectivity for hCA IX over hCA XII; for pKi: stopped-flow CO2 hydrase assay; for fold lower inhibitory activity on hCA IX than the ortho-derivative: 5f vs 5e, 5h vs 5g; for pIC50: quoted in docking discussion, read-out: IC50 CA-IX (in vitro inhibitory activity quoted in docking study)
T3 construct: made in house
Method: as §1, §2

hCA XII = target: T4, hCA XII (Homo sapiens, UniProt O43570); assay: stopped-flow CO2 hydrase assay, hCA XII; assay type: biochemical
T4 construct: made in house
T4 sequence (O43570 25-354): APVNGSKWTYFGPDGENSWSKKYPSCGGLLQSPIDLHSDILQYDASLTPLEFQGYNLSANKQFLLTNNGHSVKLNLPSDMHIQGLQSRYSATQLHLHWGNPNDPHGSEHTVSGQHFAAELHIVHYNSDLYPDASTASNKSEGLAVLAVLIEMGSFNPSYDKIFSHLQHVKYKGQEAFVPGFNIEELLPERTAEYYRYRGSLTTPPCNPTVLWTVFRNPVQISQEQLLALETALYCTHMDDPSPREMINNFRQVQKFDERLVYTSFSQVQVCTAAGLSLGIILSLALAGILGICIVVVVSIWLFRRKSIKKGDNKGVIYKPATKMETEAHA
Method: Newly synthesized hybrids 5a–n were tested for their inhibitory activity against four physiologically and pharmacologically CA isoforms, namely cytosolic hCA I and II, and tumor-associated isoforms hCA IX and XII, using a CO2 hydrase stop-flow assay. Acetazolamide (AAZ), clinically used sulphonamide, was used as the standard drug. […]. The ortho substitution in the aryl moiety appears to correlate with higher inhibitory effects against both hCA IX and XII. […] […]. The ability of imidazoles 5a–n toward inhibition of hCA I, II (cytosolic) as well as hCA IX and XII (transmembrane, tumor-associated isoforms) using stopped-flow CO2 hydrase assay was evaluated. See Appendix A.
The carbonic anhydrase catalyzed CO2 hydration actions for all new compounds herein reported have were assayed utilizing an instrument of Applied Photophysics stopped-flow. The enzymes are recombinant proteins prepared in our lab. […]. The uncatalyzed rates were determined in the same manner and subtracted from the total observed rates. Stock solutions of inhibitor (0.1 mM) were prepared in distilled-deionized water and dilutions up to 0.01 nM were done thereafter with the assay buffer. Inhibitor and enzyme solutions were preincubated together for 15 min at room temperature prior to assay, in order to allow for the formation of the E-I complex. The inhibition constants were obtained by non-linear least-squares methods using PRISM 3 and the Cheng-Prusoff equation, and represent the mean from at least three different determinations.

Compound	melting point	pKi (hCA I)	pKi (hCA II)	Selectivity Ratio hCA XII/ hCA IX (hCA IX)	pKi (hCA IX)	pKi (hCA XII)	fold lower inhibitory activity on hCA IX than the ortho-derivative (hCA IX)	pIC50 (hCA IX)	pKi (hCA I; stopped-flow CO2 hydrase assay, read-out: Ki hCA I)
NS(=O)(=O)c1ccc(-n2c(-c3ccc(C(=O)O)cc3)nc(-c3ccccc3)c2-c2ccccc2)cc1 [Compound 5l, 4-(4,5-Diphenyl-1-(4-sulfamoylphenyl)-1H-imidazol-2-yl)benzoic acid]	200 to 202 °C	< 4.00	< 4.00	0.80	5.07	5.17			
NS(=O)(=O)c1ccc(-n2c(-c3ccc(O)cc3)nc(-c3ccccc3)c2-c2ccccc2)cc1 [Compound 5f, 4-(2-(4-Hydroxyphenyl)-4,5-diphenyl-1H-imidazol-1-yl)benzene sulfonamide]		< 4.00	< 4.00	0.90	5.08	5.15	10 fold		
NS(=O)(=O)c1ccc(-n2c(-c3ccccc3)nc(-c3ccccc3)c2-c2ccccc2)cc1 [Compound 5a, 4-(2,4,5-Triphenyl-1H-imidazol-1-yl)benzene sulfonamide]	210 to 212 °C	< 4.00	< 4.00	1.90	5.54	5.26			
CN(C)c1ccc(-c2nc(-c3ccccc3)c(-c3ccccc3)n2-c2ccc(S(N)(=O)=O)cc2)cc1 [Compound 5k, 4-(2-(4-(Dimethylamino)phenyl)-4,5-diphenyl-1H-imidazol-1-yl)benzene sulfonamide]	224 to 226 °C	< 4.00	< 4.00	0.70	5.03	5.17		5.03	
CCOC(=O)c1ccc(-c2nc(-c3ccccc3)c(-c3ccccc3)n2-c2ccc(S(N)(=O)=O)cc2)cc1 [Compound 5m, Ethyl 4-(4,5-diphenyl-1-(4-sulfamoylphenyl)-1H-imidazol-2-yl)benzoate]	216 to 218 °C		< 4.00	0.70	5.06	5.21			< 4.00
NS(=O)(=O)c1ccc(-n2c(-c3ccc(Cl)cc3)nc(-c3ccccc3)c2-c2ccccc2)cc1 [Compound 5c, 4-(2-(4-Chlorophenyl)-4,5-diphenyl-1H-imidazol-1-yl)benzene sulfonamide]	230 to 232 °C	< 4.00	< 4.00	0.45	5.09	5.43			
COc1ccc(-c2nc(-c3ccccc3)c(-c3ccccc3)n2-c2ccc(S(N)(=O)=O)cc2)cc1 [Compound 5h, 4-(2-(4-Methoxyphenyl)-4,5-diphenyl-1H-imidazol-1-yl)benzene sulfonamide]	235 to 237 °C	< 4.00	< 4.00	0.50	5.13	5.41	22 fold		
COc1ccc(-c2nc(-c3ccccc3)c(-c3ccccc3)n2-c2ccc(S(N)(=O)=O)cc2)cc1OC [Compound 5i, 4-(2-(3,4-Dimethoxyphenyl)-4,5-diphenyl-1H-imidazol-1-yl)benzene sulfonamide]	260 to 262 °C	< 4.00	< 4.00	0.70	5.04	5.18		5.04	
